# How the values were obtained:
# [1] = tested on: bacteria strains TA98, TA100; assay: Mini-Ames assay, overall result; assay type: cell-based
# Protocol: (§1) Mini Am es assay. To conduct the assay, top agar was melted with a microwave and maintained at a temper atur e ≥47 °C in a water bath. T he assay was performed using a heat block set to 45 °C ± 2 °C. 12 × 75 mm test tubes were prepared in duplicates. For each concentration, the following components were added sequentially to a test tube:
# (§2) […] The mixture was vortexed and then dispensed into w ells using a dispo sable pipette. The plates wer e then incubated at 37±2 °C for approximately 48 to 72 hours.
# (§3) BBbbbb BBBBbbbb BBBB = AAAAbbbbbbAAbb nnnnnnbbbbbb bboo bbbbAAbbbbbbbbnnbbbb oobbbb bbbb eeee dd bbbbbb AAbbbbnn gg AAAAbbbbbbAAbb nnnnnnbbbbbb bbBB bbbbAAbbbbbbbbnnbbbb BBbbbb DDDDDDDD nn bbAAbbbbaaAAbb AAbbbbnnaa The mutagenicity of the compound was determined by evaluating the number of revertant colonies in strains TA98 and TA100. A compound was […]
# (§4) related and if the fold increase in revertants (F) was equal to or greater than 2 for […]
# (§5) background lawn growth on the agar plates. A scoring system ranging from 0 to 4 […]
# complete cytotoxicity, while scores 1, 2, and 3 represented 25%, 50%, and 75% growth, respectively. A score of 4 signified full '100%' growth. The background […]
# (§6) background lawn and required magnification for visualization. […]
# CYP2D6 = target: T1, CYP2D6 (Homo sapiens, UniProt P10635); assay: CYP inhibition in human liver microsomes; assay type: in vitro ADME; conditions: probe dextromethorphan, dextromethorphan substrate
# T1 construct: from tissue; host or cells: human liver microsomes
# T1 sequence (P10635 whole entry): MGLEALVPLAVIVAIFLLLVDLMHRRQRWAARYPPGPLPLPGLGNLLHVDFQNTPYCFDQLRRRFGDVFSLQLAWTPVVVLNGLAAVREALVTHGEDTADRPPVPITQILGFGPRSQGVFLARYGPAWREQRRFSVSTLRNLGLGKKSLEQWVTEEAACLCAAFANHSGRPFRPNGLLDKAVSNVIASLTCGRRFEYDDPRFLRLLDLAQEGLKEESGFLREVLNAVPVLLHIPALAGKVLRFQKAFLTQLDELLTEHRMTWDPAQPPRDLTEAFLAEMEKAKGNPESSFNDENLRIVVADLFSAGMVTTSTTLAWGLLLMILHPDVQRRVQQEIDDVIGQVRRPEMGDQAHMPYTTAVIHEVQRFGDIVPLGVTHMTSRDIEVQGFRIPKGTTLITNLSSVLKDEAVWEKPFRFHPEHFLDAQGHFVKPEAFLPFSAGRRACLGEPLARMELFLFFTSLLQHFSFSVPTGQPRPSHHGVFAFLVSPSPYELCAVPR
# Protocol: (§7) Human liver microsomes were incubated with the test compounds at 0.2 mg/mL of microsomal protein. The incubation was conducted at 37 °C in the presence of a NADPH (β-Nicotinamide adenine dinucleotide phosphate reduced form) regenerating system at a concentration of approximately 10 mM. To assess CYP inhibition, positive control substrates were utilized, including Phenacetin (1A2 substrate), Diclofenac (2C9 substrate), S-mephenytoin (2C19 substrate), Dextromethorphan (2D6 substrate), and Midazolam (3A4 substrate). The mixture was centrifuged after a 10 min incubation period to precipitate the protein. Subsequently, the samples underwent LC-MS/MS analysis, and the IC50 values were calculated to ascertain the inhibitory potency of the test compounds on specific CYP enzymes.
# CYP1A2 = target: T2, CYP1A2 (Homo sapiens, UniProt P05177); assay: CYP inhibition in human liver microsomes; assay type: in vitro ADME; conditions: probe phenacetin, phenacetin substrate
# T2 construct: from tissue; host or cells: human liver microsomes
# T2 sequence (P05177 1-516): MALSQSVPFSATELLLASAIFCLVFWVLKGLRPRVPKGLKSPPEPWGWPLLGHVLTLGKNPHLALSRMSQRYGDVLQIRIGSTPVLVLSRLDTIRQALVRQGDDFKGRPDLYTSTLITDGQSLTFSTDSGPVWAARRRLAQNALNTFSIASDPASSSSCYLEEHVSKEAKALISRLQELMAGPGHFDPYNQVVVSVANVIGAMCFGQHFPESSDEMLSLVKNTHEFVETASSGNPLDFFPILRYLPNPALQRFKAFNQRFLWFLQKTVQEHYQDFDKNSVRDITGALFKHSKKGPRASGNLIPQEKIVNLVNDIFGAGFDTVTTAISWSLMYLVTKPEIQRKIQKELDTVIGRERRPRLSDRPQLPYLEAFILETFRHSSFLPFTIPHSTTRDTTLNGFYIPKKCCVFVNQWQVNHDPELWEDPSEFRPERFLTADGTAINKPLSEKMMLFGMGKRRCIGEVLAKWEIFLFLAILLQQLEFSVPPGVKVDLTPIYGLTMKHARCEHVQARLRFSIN
# Protocol: as §7
# [2] = Stability in simulated gastric fluid (SGF); assay type: in vitro ADME
# TA98 = assay: Mini-Ames assay, strain TA98; assay type: cell-based; conditions: for F value: fold vs DMSO; for Growth of lawn: replicates 1-3
# Protocol: as §1, §2, §3, §4, §5
# growth, respectively. A score of 4 signified full '100%' growth. […]
# as §6
# mice = assay: Cataleptic behavior (bar test) induced by WIN-55,212; assay type: in vivo, mouse; conditions: rimonabant 10 mg/kg PO, BNS808 1 mg/kg; 30 min before WIN-55,212 3 mg/kg IP; bar test at 60 min
# Protocol: Catalepsy was assayed using the bar test. Mice were taken out of their home cages, and their forepaws were placed on a horizontal bar measuring 0.5 cm in diameter, positioned 4 cm above the bench surface. Typically, vehicle-treated mice released the bar within 2 s. Cataleptic behavior was defined as the mice remaining motionless, grasping onto the bar, with an arbitrary cutoff of 30 s. The CB1R antagonists, including rimonabant at doses 1 and 10 mg/kg and BNS808 at a dose of 1 mg/kg, were administered 30 min before the IP injection of 3 mg/kg WIN-55,212 (a CB1R agonist). The test was conducted 60 min after the administration of the agonist.
compound,measurement,setting,value
"O=S(=O)(NC1CCCOc2c1nn(-c1ccccc1Cl)c2-c1ccc(Cl)cc1)c1ccc(Cl)cc1 (stereo not drawn) [BNS808, 4-chloro-N-[2-(2-chlorophenyl)-3-(4-chlorophenyl)-5,6,7,8-tetrahydrooxepino[3,2-c]pyrazol-8-yl]benzenesulfonamide]",toxicity in mini-Ames assay,"[1]; 31.25 to 1000 μg/well, TA98 and TA100",no toxicity
same,mini-Ames assay (mutagenic effect),"[1]; TA98 and TA100, with and without S9",nonmutagenic ^b
same,IC50 at 10 min,CYP2D6,> 50 µM
same,IC50 at 10 min,CYP1A2,> 50 µM
same,amount in SGF with pepsin,[2]; 0 h,2.753 mg
same,"amount in SGF, no pepsin",[2]; 0 h,2.826 mg
same,Initial amount (%) in SGF with pepsin,[2]; 1 h,98%
same,"Initial amount (%) in SGF, no pepsin",[2]; 1 h,102%
same,amount in SGF with pepsin,[2]; 1 h,2.69 mg
same,stability in SGF and SIF,[2]; summary column covering SGF and SIF,stable
same,Stability in SGF,[2]; with and without pepsin,Stable
same,Number of revertants MEAN,"TA98; TA98, +S9, 31.25 μg/well",10.67
same,solubility,"TA98; TA98, +S9, 31.25 μg/well",P0
same,F value,"TA98; TA98, +S9, 31.25 μg/well",0.97
same,Growth of lawn,"TA98; TA98, +S9, 31.25 μg/well",4 (A score of 4 signified full '100%' growth)
same,Number of revertants MEAN,"TA98; TA98, +S9, 62.5 μg/well",11.33
same,solubility,"TA98; TA98, +S9, 62.5 μg/well",P0
same,F value,"TA98; TA98, +S9, 62.5 μg/well",1.03
same,Growth of lawn,"TA98; TA98, +S9, 62.5 μg/well",4 (A score of 4 signified full '100%' growth)
same,Number of revertants MEAN,"TA98; TA98, +S9, 125 μg/well",11.33
same,solubility,"TA98; TA98, +S9, 125 μg/well",P0
same,F value,"TA98; TA98, +S9, 125 μg/well",1.03
same,Growth of lawn,"TA98; TA98, +S9, 125 μg/well",4 (A score of 4 signified full '100%' growth)
same,Number of revertants MEAN,"TA98; TA98, +S9, 250 μg/well",13.00
same,solubility,"TA98; TA98, +S9, 250 μg/well",P1 (0~20% growth of crystals)
same,F value,"TA98; TA98, +S9, 250 μg/well",1.18
same,Growth of lawn,"TA98; TA98, +S9, 250 μg/well",4 (A score of 4 signified full '100%' growth)
same,Number of revertants MEAN,"TA98; TA98, +S9, 500 μg/well",10.00
same,solubility,"TA98; TA98, +S9, 500 μg/well",P2 (20%~60% growth of crystals)
same,F value,"TA98; TA98, +S9, 500 μg/well",0.91
same,Growth of lawn,"TA98; TA98, +S9, 500 μg/well",4 (A score of 4 signified full '100%' growth)
same,Number of revertants MEAN,"TA98; TA98, +S9, 1000 μg/well",9.67
same,solubility,"TA98; TA98, +S9, 1000 μg/well",P3 (60%~100% growth of crystals)
same,F value,"TA98; TA98, +S9, 1000 μg/well",0.88
same,Growth of lawn,"TA98; TA98, +S9, 1000 μg/well",4 (A score of 4 signified full '100%' growth)
same,Number of revertants MEAN,"TA98; TA98, -S9, 31.25 μg/well",6.67
same,solubility,"TA98; TA98, -S9, 31.25 μg/well",P0
same,F value,"TA98; TA98, -S9, 31.25 μg/well",0.91
same,Growth of lawn,"TA98; TA98, -S9, 31.25 μg/well",4 (A score of 4 signified full '100%' growth)
same,Number of revertants MEAN,"TA98; TA98, -S9, 62.5 μg/well",8.67
same,solubility,"TA98; TA98, -S9, 62.5 μg/well",P0
same,F value,"TA98; TA98, -S9, 62.5 μg/well",1.18
same,Growth of lawn,"TA98; TA98, -S9, 62.5 μg/well",4 (A score of 4 signified full '100%' growth)
same,Number of revertants MEAN,"TA98; TA98, -S9, 125 μg/well",7.33
same,solubility,"TA98; TA98, -S9, 125 μg/well",P0
same,F value,"TA98; TA98, -S9, 125 μg/well",1.00
same,Growth of lawn,"TA98; TA98, -S9, 125 μg/well",4 (A score of 4 signified full '100%' growth)
same,Number of revertants MEAN,"TA98; TA98, -S9, 250 μg/well",4.00
same,solubility,"TA98; TA98, -S9, 250 μg/well",P1 (0~20% growth of crystals)
same,F value,"TA98; TA98, -S9, 250 μg/well",0.55
same,Growth of lawn,"TA98; TA98, -S9, 250 μg/well",4 (A score of 4 signified full '100%' growth)
same,Number of revertants MEAN,"TA98; TA98, -S9, 500 μg/well",5.33
same,solubility,"TA98; TA98, -S9, 500 μg/well",P2 (20%~60% growth of crystals)
same,F value,"TA98; TA98, -S9, 500 μg/well",0.73
same,Growth of lawn,"TA98; TA98, -S9, 500 μg/well",4 (A score of 4 signified full '100%' growth)
same,Number of revertants MEAN,"TA98; TA98, -S9, 1000 μg/well",3.33
same,solubility,"TA98; TA98, -S9, 1000 μg/well",P3 (60%~100% growth of crystals)
same,F value,"TA98; TA98, -S9, 1000 μg/well",0.45
same,Growth of lawn,"TA98; TA98, -S9, 1000 μg/well",4 (A score of 4 signified full '100%' growth)
same,"blockade of WIN-55,212-induced cataleptic behavior",mice,"only rimonabant (10 mg/kg, PO) blocked the cataleptic behavior"
